{"source": "patent US20240408086A1", "about": "“USE OF LUVADAXISTAT FOR THE TREATMENT OF COGNITIVE IMPAIRMENT” (TAKEDA PHARMACEUTICAL COMPANY LIMITED, priority 2021, published 2024)", "key": {"[1]": {"test_system": "scopolamine-induced EBC deficits", "conditions": "preclinical studies; see Example 2 of WO 2015/132608; cited from earlier work"}, "[2]": {"test_system": "adult patients with persistent negative symptoms of schizophrenia", "assay_type": "in vivo, human", "conditions": "50 mg, 125 mg, 500 mg once daily"}, "[3]": {"test_system": "patients with schizophrenia", "experiment": "Phase 1b crossover study: mismatch negativity (MMN) amplitude", "assay_type": "in vivo, human", "text": "(§1) NCT03359785 was a randomized, double-blind, placebo-controlled cross-over Phase 1b clinical trial in schizophrenia patients at a single site to evaluate PD effects, safety, tolerability, and pharmacokinetics of multiple oral doses of Compound (I). The objective of the study was to assess pharmacodynamic (PD) biomarkers of Compound (I) on measures related to cerebellar circuitry function and NMDA pharmacology that are known to be affected in schizophrenia.\n(§2) Evoked potentials in the electroencephalogram were also tested to assess the impact of multiple oral doses of Compound (I) on NMDA-sensitive physiological responses that are affected in schizophrenia. Specifically, mismatch negativity (MMN), auditory steady state response (ASSR), and P300 were measured at baseline and following 8 days of treatment in both periods.\nMMN is an oddball event-related potential sensitive to NMDA-receptor pharmacology. MMN is an event related potential (ERP) evoked in response to unattended changes in background stimulation and is responsive to D-serine elevations. There is evidence of D-serine administration improving MMN in patients with schizophrenia. MMN reflects an automatic process of detecting a mismatch between a deviant stimulus and a sensory-memory trace (FIGS. 11A, 11B). Smaller amplitudes of MMN have been consistently identified in schizophrenia participants, with a large effect size compared with healthy controls. In this study, MMN amplitude was measured at Midline frontal electrode (Fz) of electroencephalogram [EEG].\n(§3) All endpoints were analyzed as change from baseline compared to placebo within the same subjects. Statistical comparisons were conducted with an ANOVA model, with treatment sequence, period, and treatment as fixed effects, and subject as a random effect. As a supplementary analysis, an analysis of covariance model (ANCOVA) was applied to the primary endpoint with (period) baseline as a covariate, treatment sequence, period, treatment effect and baseline-by-treatment as fixed effects, and subject as a random effect."}, "[4]": {"test_system": "patients with schizophrenia", "experiment": "Phase 1b crossover study: auditory steady state response (ASSR) gamma band power", "assay_type": "in vivo, human", "text": "as §1, §2\nASSR are evoked oscillatory responses that are entrained to the frequency and phase of temporally modulated stimuli. Individuals with schizophrenia experience subjective sensory anomalies and objective deficits on assessment of sensory function. These deficits can be produced by abnormal signaling in the sensory pathways and sensory cortex or by later-stage disturbances in the cognitive processing of such inputs. ASSR can be used to assess the integrity of sensory pathways including cortical processing. ASSR was measured at midline central electrode (Cz) of EEG.\nas §3"}, "[5]": {"test_system": "adult patients with persistent negative symptoms of schizophrenia", "assay_type": "in vivo, human", "conditions": "for PANSS NSFS, LS mean change from baseline to Week 12: placebo −3.1", "text": "Compound (I) was orally administered in the form of a tablet once daily for up to 14 weeks. Compound (I) placebo-matching tablets were similarly orally administered once daily for up to 14 weeks. The treatment group remained undisclosed to the participant and study doctor/site personnel during the study unless there was an urgent medical need.\nThe primary endpoint evaluated was the change in negative symptoms, measured as the 12-week change from baseline in the Positive and Negative Syndrome Scale-Negative Symptom Factor Score (PANSS NSFS)."}, "[6]": {"test_system": "D-serine in cerebellum", "experiment": "D-serine increase in cerebellum (6 hours)", "assay_type": "in vivo", "design": "key: a + sign means efficacious; a − sign means not efficacious", "conditions": "Mouse", "text": "DAAO inhibition increases levels of D-serine, a co-agonist of the N-methyl-d-aspartate (NMDA) receptor. […] Increases in cerebellum D-serine levels may also influence distal regions of the brain (such as the hippocampus) or cortical regions, through a mechanism that remains to be elucidated. […] In Table 1, a + sign means efficacious, a − sign means not efficacious, and an empty cell indicates a dose was not tested."}, "[7]": {"test_system": "adult patients with persistent negative symptoms of schizophrenia", "assay_type": "in vivo, human", "conditions": "for SCoRS Interviewer Total Score, Difference from Placebo for Week 12, LS Mean (SE) / SCoRS Interviewer Total Score, Adjusted Change from Baseline to Week 12, LS Mean (SE): MMRM; for SCoRS Interviewer Total Score, Difference from Placebo for Week 12, LS Mean (SE) / SCoRS Interviewer Total Score, Adjusted Change from Baseline to Week 12, LS Mean (SE) / SCoRS Interviewer Total Score, Change from Baseline to Week 12, Mean (SD) / SCoRS Interviewer Total Score, Change from Baseline to Week 12, Median / SCoRS Interviewer Total Score, Week 12, Mean (SD) / SCoRS Interviewer Total Score, Week 12, Median: preliminary analysis", "text": "To assess changes in cognitive impairment associated with schizophrenia (CIAS), secondary endpoints included the 12-week change from baseline in the Brief Assessment of Cognition in Schizophrenia (BACS) composite score, a measure of cognition across multiple domains, and the Schizophrenia Cognition Rating Scale (SCORS) score, a measure of day-to-day cognitive functioning requiring input from an adult informant. Secondary endpoints were not corrected for multiplicity.\nThe SCORS is an interview-based measure of cognitive functioning that was developed to specifically assess aspects of cognitive functioning in participants with schizophrenia. The items assess the 7 cognitive domains of attention, memory, reasoning and problem solving, working memory, processing speed, language functions, and social cognition. The SCORS global total scores is the sum of the 20 items, and it varies from 20 to 80 with 20 being the best outcome and 80 being the worst."}, "[8]": {"test_system": "patients with schizophrenia", "experiment": "Phase 1b crossover study: safety and tolerability", "assay_type": "in vivo, human", "conditions": "50 or 500 mg for 8 consecutive days", "text": "as §1\nSafety objectives included the incidence of treatment-emergent adverse events (TEAEs), laboratory tests, vital signs, and electrocardiogram (ECG) assessments."}}, "note": "Read-outs that look alike come from different tables or passages of the source.", "data": [{"smiles": "O=c1[nH]nc(CCc2ccc(C(F)(F)F)cc2)cc1O", "note": "[Compound (I), luvadaxistat]", "values": [{"measurement": "Reversal of scopolamine-induced EBC deficits", "setting": "[1]", "value": "robust effects in reversing scopolamine-induced EBC deficits"}, {"measurement": "Negative symptoms as measured with the BNSS", "setting": "[2]", "value": "no significant improvements"}, {"measurement": "MMN amplitude, effect size vs placebo", "setting": "[3]; 50 mg for 8 days", "value": "−0.691"}, {"measurement": "MMN amplitude, LS means change from baseline", "setting": "[3]; 50 mg for 8 days, placebo 0.669, p=0.0497", "value": "−0.239"}, {"measurement": "MMN amplitude, effect size vs placebo", "setting": "[3]; 500 mg for 8 days", "value": 0.389}, {"measurement": "MMN amplitude, LS means change from baseline", "setting": "[3]; 500 mg for 8 days, placebo −0.154, p=0.8517", "value": 0.594}, {"measurement": "ASSR gamma power, effect size vs placebo", "setting": "[4]; 50 mg for 8 days", "value": 0.575}, {"measurement": "ASSR gamma power, change from baseline", "setting": "[4]; 50 mg for 8 days, placebo −16.282, p=0.056", "value": 2.135}, {"measurement": "ASSR gamma power, effect size vs placebo", "setting": "[4]; 500 mg for 8 days", "value": 0.003}, {"measurement": "ASSR gamma power, change from baseline", "setting": "[4]; 500 mg for 8 days, placebo 9.203, p=0.495", "value": 9.411}, {"measurement": "PANSS NSFS, LS mean change from baseline to Week 12", "setting": "[5]; 50 mg once daily, p=0.426 vs placebo", "value": "−3.3"}, {"measurement": "Improvement in PANSS NSFS versus placebo", "setting": "[5]; 50 mg, 125 mg, or 500 mg at Week 12", "value": "no significant improvements"}, {"measurement": "PANSS NSFS, LS mean change from baseline to Week 12", "setting": "[5]; 125 mg once daily, p=0.362 vs placebo", "value": "−3.4"}, {"measurement": "PANSS NSFS, LS mean change from baseline to Week 12", "setting": "[5]; 500 mg once daily, p=0.808 vs placebo", "value": "−2.5"}, {"measurement": "D-serine increase in cerebellum (6 hours)", "setting": "[6]; 14-Day Once Daily (QD), 0.03 mg/kg", "value": "−"}, {"measurement": "D-serine increase in cerebellum (6 hours)", "setting": "[6]; 14-Day Once Daily (QD), 0.1 mg/kg", "value": "−"}, {"measurement": "D-serine increase in cerebellum (6 hours)", "setting": "[6]; 14-Day Once Daily (QD), 0.3 mg/kg", "value": "+"}, {"measurement": "D-serine increase in cerebellum (6 hours)", "setting": "[6]; 14-Day Once Daily (QD), 1 mg/kg", "value": "+"}, {"measurement": "D-serine increase in cerebellum (6 hours)", "setting": "[6]; 14-Day Once Daily (QD), 3 mg/kg", "value": "+"}, {"measurement": "D-serine increase in cerebellum (6 hours)", "setting": "[6]; Single Dose, 0.3 mg/kg", "value": "+"}, {"measurement": "D-serine increase in cerebellum (6 hours)", "setting": "[6]; Single Dose, 1 mg/kg", "value": "+"}, {"measurement": "D-serine increase in cerebellum (6 hours)", "setting": "[6]; Single Dose, 3 mg/kg", "value": "+"}, {"measurement": "D-serine increase in cerebellum (6 hours)", "setting": "[6]; Single Dose, 10 mg/kg", "value": "+"}, {"measurement": "SCoRS interviewer total score, effect size versus placebo", "setting": "[7]; 50 mg once daily, 12 weeks, p=0.011, not corrected for multiplicity", "value": 0.4}, {"measurement": "SCoRS Interviewer Total Score, Difference from Placebo for Week 12, LS Mean (SE)", "setting": "[7]; 50 mg once daily, one-sided unadjusted p 0.007*", "value": "−2.4 (0.94)"}, {"measurement": "SCoRS Interviewer Total Score, Adjusted Change from Baseline to Week 12, LS Mean (SE)", "setting": "[7]; 50 mg once daily", "value": "−3.7 (0.77)"}, {"measurement": "SCoRS interviewer total score, 12-week LS mean change from baseline", "setting": "[7]; 50 mg once daily, placebo −1.6", "value": "−3.8"}, {"measurement": "SCoRS Interviewer Total Score, Change from Baseline to Week 12, Mean (SD)", "setting": "[7]; 50 mg once daily", "value": "−4.0 (5.93)"}, {"measurement": "SCoRS Interviewer Total Score, Change from Baseline to Week 12, Median", "setting": "[7]; 50 mg once daily", "value": "−3.0"}, {"measurement": "SCoRS Interviewer Total Score, Week 12, Mean (SD)", "setting": "[7]; 50 mg once daily", "value": "35.5 (10.91)"}, {"measurement": "SCoRS Interviewer Total Score, Week 12, Median", "setting": "[7]; 50 mg once daily", "value": 32.0}, {"measurement": "SCoRS Interviewer Total Score, Difference from Placebo for Week 12, LS Mean (SE)", "setting": "[7]; 125 mg once daily, one-sided unadjusted p 0.236", "value": "−0.7 (0.96)"}, {"measurement": "SCoRS Interviewer Total Score, Adjusted Change from Baseline to Week 12, LS Mean (SE)", "setting": "[7]; 125 mg once daily", "value": "−2.1 (0.77)"}, {"measurement": "SCoRS Interviewer Total Score, Change from Baseline to Week 12, Mean (SD)", "setting": "[7]; 125 mg once daily", "value": "−2.1 (5.89)"}, {"measurement": "SCoRS Interviewer Total Score, Change from Baseline to Week 12, Median", "setting": "[7]; 125 mg once daily", "value": "−2.0"}, {"measurement": "SCoRS Interviewer Total Score, Week 12, Mean (SD)", "setting": "[7]; 125 mg once daily", "value": "36.1 (9.69)"}, {"measurement": "SCoRS Interviewer Total Score, Week 12, Median", "setting": "[7]; 125 mg once daily", "value": 36.5}, {"measurement": "SCoRS Interviewer Total Score, Difference from Placebo for Week 12, LS Mean (SE)", "setting": "[7]; 500 mg once daily, one-sided unadjusted p 0.449", "value": "−0.1 (0.98)"}, {"measurement": "SCoRS Interviewer Total Score, Adjusted Change from Baseline to Week 12, LS Mean (SE)", "setting": "[7]; 500 mg once daily", "value": "−1.5 (0.84)"}, {"measurement": "SCoRS Interviewer Total Score, Change from Baseline to Week 12, Mean (SD)", "setting": "[7]; 500 mg once daily", "value": "−2.4 (5.34)"}, {"measurement": "SCoRS Interviewer Total Score, Change from Baseline to Week 12, Median", "setting": "[7]; 500 mg once daily", "value": "−2.0"}, {"measurement": "SCoRS Interviewer Total Score, Week 12, Mean (SD)", "setting": "[7]; 500 mg once daily", "value": "39.4 (9.60)"}, {"measurement": "SCoRS Interviewer Total Score, Week 12, Median", "setting": "[7]; 500 mg once daily", "value": 39.0}, {"measurement": "Deaths, serious adverse events, TEAEs leading to discontinuation of study drug", "setting": "[8]", "value": "no deaths, serious adverse events (AEs), or TEAEs leading to discontinuation of study drug"}, {"measurement": "Tolerability in the Phase 1b study", "setting": "[8]", "value": "generally well tolerated"}]}]}
